Assay results from patent US20060128662A1, “Novel compounds for treatment of obesity” (Novo Nordisk A/S, priority 2003, published 2006).

Test system: FSK-4 cells
Test: Assay (I): Glucose utilisation in a human epithelia cell line (FSK4 cells), D-(6-3H(N))-glucose
Format: cell-based
Conditions: 24 hours incubation, Hill equation, read-out: GlucosFSK4 EC50
Description: Assay (I): Glucose Utilisation in a Human Epithelia Cell Line (FSK4 cells)
The ^3H-proton will first be released in the TCA cyclus and transported to the respiratory chain where it will be incorporated into water. The water is thereafter separated from the D-(6-^3H(N))-glucose by evaporation.
FSK-4 cells obtained from ATCC (Maryland, USA), are cultured in growth medium (McCoy's medium with the following addition 100 units/ml penicillin and streptomycin and 10% FCS (fetal calf serum)) at 37° C. and 5% CO2.
The cells are then incubated for another 24 hours at 37° C. and 5% CO2.
The half maximal concentration (EC50) and maximal efficacy (Emax) are calculated using the Hill equation in GraphPad Prism 3.0 (GraphPad software, Inc.). […] From the percentage increase in glucose utilisation the linear slope is calculated using the Michaelis-Menten equation.

EC50 [nM]	SMILES
2300	CC(C)c1ccc(S(=O)(=O)/C(C#N)=C/c2cc(C(C)(C)C)c(O)c(C(C)(C)C)c2)cc1 [Example 34, 3-(3,5-Di-tert-butyl-4-hydroxy-phenyl)-2-(4-isopropyl-benzenesulfonyl)-acrylonitrile]
900	CC(C)(C)c1cc(/C=C(\C#N)S(=O)(=O)c2ccc(Cl)cn2)cc(C(C)(C)C)c1O [Example 41, 2-(5-Chloro-pyridine-2-sulfonyl)-3-(3,5-di-tert-butyl-4-hydroxy-phenyl)-acrylonitrile]
